Assay results: the NIST ThermoML archive (doi:10.1016/j.jct.2019.03.032)
± gives the expanded uncertainty stated by the source.

Settings: Metastable liquid, Gas chromatography

CC(C)=CCC/C(C)=C/CC/C(C)=C/CC/C=C(\C)CC/C=C(\C)CCC=C(C)C
vapor or sublimation pressure (298.15 K): 3.7e-10 kPa
vapor or sublimation pressure (310 K): 3.1e-09 kPa
vapor or sublimation pressure (320 K): 1.6e-08 kPa
vapor or sublimation pressure (330 K): 7.5e-08 kPa
vapor or sublimation pressure (340 K): 3.1e-07 ± 1.4e-07 kPa
vapor or sublimation pressure (350 K): 1.2e-06 kPa
vapor or sublimation pressure (360 K): 3.9e-06 ± 1.6e-06 kPa
vapor or sublimation pressure (370 K): 1.2e-05 ± 4e-06 kPa
vapor or sublimation pressure (380 K): 3.5e-05 ± 1.2e-05 kPa
vapor or sublimation pressure (390 K): 9.3e-05 ± 7e-06 kPa
vapor or sublimation pressure (400 K): 0.00023 ± 6e-05 kPa
vapor or sublimation pressure (410 K): 0.00055 ± 0.00015 kPa
vapor or sublimation pressure (420 K): 0.0012 ± 0.0002 kPa
vapor or sublimation pressure (430 K): 0.0026 ± 0.0004 kPa
vapor or sublimation pressure (440 K): 0.0053 ± 0.0009 kPa
vapor or sublimation pressure (450 K): 0.01 ± 0.002 kPa
vapor or sublimation pressure (460 K): 0.019 ± 0.002 kPa
vapor or sublimation pressure (470 K): 0.035 ± 0.005 kPa
vapor or sublimation pressure (480 K): 0.061 ± 0.007 kPa
vapor or sublimation pressure (490 K): 0.1 ± 0.011 kPa
vapor or sublimation pressure (500 K): 0.17 ± 0.017 kPa
vapor or sublimation pressure (510 K): 0.27 ± 0.025 kPa
vapor or sublimation pressure (520 K): 0.42 ± 0.036 kPa
vapor or sublimation pressure (530 K): 0.63 ± 0.052 kPa
vapor or sublimation pressure (540 K): 0.94 ± 0.073 kPa
vapor or sublimation pressure (550 K): 1.4 ± 0.11 kPa
vapor or sublimation pressure (560 K): 2 ± 0.15 kPa
vapor or sublimation pressure (570 K): 2.8 ± 0.22 kPa
vapor or sublimation pressure (580 K): 3.8 ± 0.29 kPa
vapor or sublimation pressure (590 K): 5.1 ± 0.4 kPa
vapor or sublimation pressure (600 K): 6.9 ± 0.54 kPa
vapor or sublimation pressure (709.1 K): 101.33 ± 10 kPa

CC(C)CCCC(C)CCCC(C)CCCCC(C)CCCC(C)CCCC(C)C (centres undefined) [2,6,10,15,19,23-hexamethyltetracosane]
vapor or sublimation pressure (298.15 K): 1.5e-09 kPa
vapor or sublimation pressure (310 K): 1.2e-08 kPa
vapor or sublimation pressure (320 K): 5.9e-08 kPa
vapor or sublimation pressure (330 K): 2.6e-07 kPa
vapor or sublimation pressure (340 K): 1e-06 ± 4e-07 kPa
vapor or sublimation pressure (350 K): 3.5e-06 ± 1.4e-06 kPa
vapor or sublimation pressure (360 K): 1.1e-05 ± 4e-06 kPa
vapor or sublimation pressure (370 K): 3.4e-05 ± 1.2e-05 kPa
vapor or sublimation pressure (380 K): 9.2e-05 ± 7e-06 kPa
vapor or sublimation pressure (390 K): 0.00024 ± 6e-05 kPa
vapor or sublimation pressure (400 K): 0.00057 ± 0.00015 kPa
vapor or sublimation pressure (410 K): 0.0013 ± 0.0002 kPa
vapor or sublimation pressure (420 K): 0.0028 ± 0.0006 kPa
vapor or sublimation pressure (430 K): 0.0059 ± 0.0011 kPa
vapor or sublimation pressure (440 K): 0.012 ± 0.002 kPa
vapor or sublimation pressure (450 K): 0.022 ± 0.004 kPa
vapor or sublimation pressure (460 K): 0.04 ± 0.005 kPa
vapor or sublimation pressure (470 K): 0.071 ± 0.009 kPa
vapor or sublimation pressure (480 K): 0.121 ± 0.015 kPa
vapor or sublimation pressure (490 K): 0.2 ± 0.021 kPa
vapor or sublimation pressure (500 K): 0.32 ± 0.032 kPa
vapor or sublimation pressure (510 K): 0.51 ± 0.046 kPa
vapor or sublimation pressure (520 K): 0.78 ± 0.065 kPa
vapor or sublimation pressure (530 K): 1.2 ± 0.095 kPa
vapor or sublimation pressure (540 K): 1.7 ± 0.13 kPa
vapor or sublimation pressure (550 K): 2.5 ± 0.19 kPa
vapor or sublimation pressure (560 K): 3.5 ± 0.27 kPa
vapor or sublimation pressure (570 K): 4.8 ± 0.37 kPa
vapor or sublimation pressure (580 K): 6.6 ± 0.51 kPa
vapor or sublimation pressure (590 K): 8.9 ± 0.69 kPa
vapor or sublimation pressure (600 K): 12 ± 0.93 kPa
vapor or sublimation pressure (686.4 K): 101.33 ± 10 kPa
